Data from article PMC4702177, “Discovering new mTOR inhibitors for cancer treatment through virtual screening methods and in vitro assays” (Scientific Reports, 2016).

Tested on: caspase-3 activation and PARP cleavage in HeLa cells
Assay: Western blot of apoptosis markers
Assay type: cell-based, human
Settings: 24 h, compared with control
Experimental: To elucidate the mechanisms of cell death induced by 17, we analyzed the effect of 17 on nuclear morphology using Hoechst 33342 staining. […] This observation allowed for clear discrimination of treated cells from untreated non-apoptotic HeLa cells, which have a normal, round, and unpunctuated nucleus. […] The percentage of apoptotic HeLa cells were 6.5% and 7.7% at the concentrations of 2.74 and 5.48 μM, respectively (Fig. 6d). To further confirm the nuclear morphology observation, Western blotting was used to detect caspase-3 activation and PARP cleavage, two biochemical markers of apoptosis. […] The induction of apoptosis is positively correlated with the concentration of compound 17.
[…] Samples were prepared by lysing PBS-washed cells with RIPA buffer (Beyotime, Haimen, China) consisting of 1% Nonidet P-40, 0.5% sodium deoxycholate, 0.1% SDS, and 50 mM Tris-HCl, pH 7.4, supplemented with NaF, NaVO4, EDTA and a protease inhibitor cocktail (Roche). Proteins were subjected to SDS-PAGE gel electrophoresis and transferred onto a polyvinylidene difluoride membrane (Hybond-P; GE Healthcare Life Sciences, Piscataway, NJ). […] The densitometry of each band was quantified by FluorChem 8000 (AlphaInnotech, San Leandro, CA).

## Nc1nn2c(nc(N)c3c(N)n[nH]c32)c1/N=N/c1ccccc1 [Compound 17]
  levels of cleaved (activated) caspase-3 and PARP: markedly increased
